The conditions of the data set: for ϕ (quantum yield): pH 7.4.
[1] abbreviates: spirolactone dyes, table title says PBS, text (b560-b564) says maximal ε when ring-opened in EtOH/0.1% TFA.

Read-outs that look alike come from different tables or passages of the source.

Regarding `CN(C)c1ccc2c(c1)[Si@](C)(CCCSCC(=O)O)c1cc(N(C)C)ccc1[C@@]21OC(=O)c2ccccc21` [Compound 064, 2-((3-((5r,10r)-3,7-Bis(dimethylamino)-5-methyl-3′-oxo-3′H,5H-spiro[dibenzo[b,e]siline-10,1′-isobenzofuran]-5-yl)propyl)thio)acetic acid], under “PBS”, the “Em (nm)” value turned out to be 665 nm, the “Ex (nm)” value is reported as 645 nm and the “ϕ (quantum yield)” value was found to be 0.45. Besides, the “ε (M^−1 cm^−1)” value under setting [1] is 160,400 M^−1 cm^−1.

Take `Cc1ccccc1C1=c2cc3c(cc2[Si](C)(CCCCl)c2cc4c(cc21)CCCN4C)=[N+](C)CCC3` (stereo not shown) [Compound 019, 13-(3-Chloropropyl)-1,11,13-trimethyl-6-(o-tolyl)-2,3,4,8,9,10,11,13-octahydrosilino[3,2-g:5,6-g′]diquinolin-1-ium]: where the note is “PBS”, the “Brightness (ϕ × ε)” value is listed as 41,250, the “Em (nm)” value is 694 nm, the “Ex (nm)” value is given as 677 nm and the “ε (M^−1 cm^−1)” value is 125,000 M^−1 cm^−1. Further, the “ϕ (quantum yield)” value (PBS) was 0.33.

On to `Cc1ccccc1C1=c2cc3c(cc2[Si](C)(CCCCl)c2cc4c(cc21)CCN4C)=[N+](C)CC3` (stereo not shown) [Compound 023, 11-(3-Chloropropyl)-1,9,11-trimethyl-5-(o-tolyl)-2,3,7,8,9,11-hexahydrosilino[3,2-f:5,6-f]diindol-1-ium], for which, where the note is “PBS”, the “Brightness (ϕ × ε)” value is reported as 21,947, the “Em (nm)” value is recorded as 717 nm, the “Ex (nm)” value came out at 693 nm and the “ε (M^−1 cm^−1)” value is on record as 129,100 M^−1 cm^−1. The “ϕ (quantum yield)” value (PBS) turned out to be 0.17.

As to `CN(C)c1ccc2c(c1)[Si@](C)(CCCCl)c1cc(N(C)C)ccc1[C@@]21OC(=O)c2ccccc21` [Compound 038, (5r,10r)-5-(3-Chloropropyl)-3,7-bis(dimethylamino)-5-methyl-3′H,5H-spiro[dibenzo[b,e]siline-10,1′-isobenzofuran]-3′-one], the “extinction coefficient (maximum) in EtOH/0.1% TFA” value (EtOH/0.1% TFA) is reported as ~200,000 M−1 cm−1. For the setting “PBS”, the “Em (nm)” value is reported as 665 nm, the “Ex (nm)” value is recorded as 650 nm and the “ϕ (quantum yield)” value is 0.40. Besides, the “ε (M^−1 cm^−1)” value under setting [1] is recorded as 200,000 M^−1 cm^−1. In addition, the “Brightness (ϕ × ε)” value (spirolactone dyes, ϕ in PBS × ε in EtOH/0.1% TFA) was 80,000. In addition, the overall brightness (ϕ in PBS × ε in EtOH/0.1% TFA) is reported as ~80,000 M−1 cm−1.

For `Cc1ccccc1C1=C2C=CC(=[N+](C)C)C=C2[Si](c2ccccc2)(c2ccccc2)c2cc(N(C)C)ccc21` [Compound 007, N-(7-(Dimethylamino)-5,5-diphenyl-10-(o-tolyl)dibenzo[b,e]silin-3(5H)-ylidene)-N-methylmethanaminium], for the setting “PBS”, the “Brightness (ϕ × ε)” value was 41,952, the “Em (nm)” value is reported as 677 nm, the “Ex (nm)” value is recorded as 663 nm and the “ε (M^−1 cm^−1)” value was 120,900 M^−1 cm^−1. For the same compound, for the setting “PBS”, the “ϕ (quantum yield)” value is 0.35. Also, the “red-shift compared to dimethylsilyl counterpart” value (vs 001 (for 007) or vs 020 (for 021, 022), excitation and emission) is on record as “approximately 15 nm”.

As to `C=C[Si]1(C=C)c2cc3c(cc2C(c2ccccc2C)=c2cc4c(cc21)=[N+](C)CCC4)CCCN3C` [Compound 017, 1,11-Dimethyl-6-(o-tolyl)-13,13-divinyl-2,3,4,8,9,10,11,13-octahydrosilino[3,2-g:5,6-g′]diquinolin-1-ium], for the setting “PBS”, the “Brightness (ϕ × ε)” value was 75,104, the “Em (nm)” value was determined as 702 nm, the “Ex (nm)” value is given as 683 nm and the “ε (M^−1 cm^−1)” value is 234,700 M^−1 cm^−1. The “ϕ (quantum yield)” value (PBS) is recorded as 0.32. Also, the “brighter than dimethylsilyl counterpart” value (vs 001 (for 002, 009) or vs 016 (for 017), PBS) was 60%.

With `Cc1ccccc1C1=C2C=CC(=[N+](C)C)C=C2[Si](C)(c2cccc(N(C)C)c2)c2cc(N(C)C)ccc21` (stereo not shown) [Compound 008, N-(7-(Dimethylamino)-5-(3-(dimethylamino)phenyl)-5-methyl-10-(o-tolyl)dibenzo[b,e]silin-3(5H)-ylidene)-N-methylmethanaminium], where the note is “PBS”, the “Brightness (ϕ × ε)” value came out at 3700, the “Em (nm)” value is 668 nm, the “Ex (nm)” value is 651 nm and the “ε (M^−1 cm^−1)” value is on record as 154,200 M^−1 cm^−1. Further, for the setting “PBS”, the “ϕ (quantum yield)” value was 0.02. Moreover, the quantum yield (pH 3 acetate buffer) is 0.31.

As for `C[Si@]1(CCCCl)c2cc(N3CCC3)ccc2[C@]2(OC(=O)c3ccccc32)c2ccc(N3CCC3)cc21` [Compound 036, (5r,10r)-3,7-Di(azetidin-1-yl)-5-(3-chloropropyl)-5-methyl-3′H,5H-spiro[dibenzo[b,e]siline-10,1′-isobenzofuran]-3′-one], for the setting “PBS”, the “Em (nm)” value is given as 666 nm, the “Ex (nm)” value was found to be 648 nm and the “ϕ (quantum yield)” value stood at 0.53. Further, under setting [1], the “ε (M^−1 cm^−1)” value was 213,200 M^−1 cm^−1.

In the case of `CN(C)c1ccc2c(c1)[Si@](C)(CCCSCC(=O)O)c1cc(N(C)C)ccc1[C@]21OC(=O)c2ccccc21` [Compound 063, 2-((3-((5s,10s)-3,7-Bis(dimethylamino)-5-methyl-3′-oxo-3′H,5H-spiro[dibenzo[b,e]siline-10,1′-isobenzofuran]-5-yl)propyl)thio)acetic acid], where the note is “PBS”, the “Em (nm)” value is recorded as 665 nm, the “Ex (nm)” value was 645 nm and the “ϕ (quantum yield)” value was determined as 0.45. The “ε (M^−1 cm^−1)” value under setting [1] was 180,600 M^−1 cm^−1.

As to `CN(C)c1ccc2c(c1)[Si@](C)(CCCN=[N+]=[N-])c1cc(N(C)C)ccc1[C@]21OC(=O)c2ccccc21` [Compound 053, (5s,10s)-5-(3-Azidopropyl)-3,7-bis(dimethylamino)-5-methyl-3′H,5H-spiro[dibenzo[b,e]siline-10,1′-isobenzofuran]-3′-one], where the note is “PBS”, the “Em (nm)” value worked out at 666 nm, the “Ex (nm)” value is given as 645 nm and the “ϕ (quantum yield)” value worked out at 0.43. The “ε (M^−1 cm^−1)” value under setting [1] is listed as 206,700 M^−1 cm^−1.

Consider `COc1cccc(OC)c1C1=C2C=CC(=[N+]3CCC3)C=C2[Si](C)(CCCCl)c2cc(N3CCC3)ccc21` (stereo not shown) [Compound 029, 1-(7-(Azetidin-1-yl)-5-(3-chloropropyl)-10-(2,6-dimethoxyphenyl)-5-methyldibenzo[b,e]silin-3(5H)-ylidene)azetidin-1-ium], for which, under “PBS”, the “Brightness (ϕ × ε)” value is 86,400, the “Em (nm)” value is 670 nm, the “Ex (nm)” value worked out at 653 nm and the “ε (M^−1 cm^−1)” value was 180,000 M^−1 cm^−1. Further, the “ϕ (quantum yield)” value (PBS) came out at 0.48.

Turning to `C[Si@]1(CCCCl)c2cc(N3CCC3)ccc2[C@@]2(OC(=O)c3ccccc32)c2ccc(N3CCC3)cc21` [Compound 035, (5s,10s)-3,7-Di(azetidin-1-yl)-5-(3-chloropropyl)-5-methyl-3′H,5H-spiro[dibenzo[b,e]siline-10,1′-isobenzofuran]-3′-one], under “PBS”, the “Em (nm)” value was determined as 666 nm and the “Ex (nm)” value was determined as 648 nm. The “ε (M^−1 cm^−1)” value under setting [1] was 183,000 M^−1 cm^−1.

Turning to `Cc1ccccc1C1=C2C=CC(=[N+](C)C)C=C2[Si](C)(c2ccccc2)c2cc(N(C)C)ccc21` (stereo not shown) [Compound 004, N-(7-(Dimethylamino)-5-methyl-5-phenyl-10-(o-tolyl)dibenzo[b,e]silin-3(5H)-ylidene)-N-methylmethanaminium], under “PBS”, the “Brightness (ϕ × ε)” value is 34,203, the “Em (nm)” value amounted to 670 nm, the “Ex (nm)” value is reported as 657 nm and the “ε (M^−1 cm^−1)” value is on record as 99,140 M^−1 cm^−1. Further, the “ϕ (quantum yield)” value (PBS) stood at 0.35.

Values taken from US20250003877A1, “Silyl Bridged Dyes” (priority 2021, published 2025).
